Patent publication US6887658B2, “Methods of identifying non-specific inhibitors of biomolecules” (Northwestern University, priority 2001, dated 2005)
pIC50, pKd: −log10 of the molar value. Read-outs that look alike come from different tables or passages of the source.

How the values were obtained:
[1] = system: HIV Tar RNA; details: original target; read-out: IC50 Original Target(s): HIV Tar RNA; cited from earlier work
[2] = Dynamic light scattering (DLS); type: physicochemical
[3] = target: chymotrypsin (Bos taurus, UniProt P00766); experiment: chymotrypsin inhibition enzyme assay; type: biochemical
[4] = target: T1, AmpC β-lactamase (Escherichia coli, UniProt P00811); details: for ↑ IC50 vs. 10x β-lactamase: 10-fold increase in β-lactamase; for ↑ IC50 vs. 10x Enzyme: β-lactamase 10 nM vs 1 nM
[5] = target: T1, AmpC β-lactamase; experiment: biochemical
[6] = system: model enzymes (β-lactamase, chymotrypsin, DHFR, β-galactosidase); type: biochemical
[7] = type: physicochemical; details: 625 μM in 20 mM Tris, pH 7.2
[8] = system: prion; details: original target; read-out: IC50 Original Target(s): prion; cited from earlier work
[9] = target: triosephosphate isomerase (Plasmodium falciparum, UniProt Q07412); details: read-out: IC50 Original Target(s): TIM; cited from earlier work
[10] = target: insulin receptor (Homo sapiens, UniProt P06213); details: original target; footnote b: Kd; read-out: Kd Original Target(s): insulin receptor; cited from earlier work
[11] = target: β-galactosidase (Escherichia coli, UniProt P00722); experiment: biochemical; details: for ↑ IC50 in the presence of BSA, against β-galactosidase: 0.1 mg/mL BSA
[12] = target: integrase; details: original target; read-out: IC50 Original Target(s): integrase; cited from earlier work
[13] = target: phosphoinositide 3-kinase; details: original target; read-out: IC50 Original Target(s): PI3K; cited from earlier work
[14] = system: kinesin; details: original target; read-out: IC50 Original Target(s): kinesin; cited from earlier work
[15] = system: thymidylate synthase; details: original target; read-out: IC50 Original Target(s): TS; cited from earlier work
[16] = system: endothelial nitric oxide synthase; details: original target; read-out: IC50 Original Target(s): eNOS; cited from earlier work
[17] = system: neuronal nitric oxide synthase; details: original target; read-out: IC50 Original Target(s): nNOS; cited from earlier work
[18] = Table 4, 50 mM KPi, at the concentration under DLS conc.
[19] = Table 6, read-out: IC50 vs. chymo.
[20] = Table 6, incubation with β-lactamase, 5 min
[21] = Table 2, 5 min preincubation of inhibitor and enzyme vs none

T1 sequence (P00811 20-377 limits assumed): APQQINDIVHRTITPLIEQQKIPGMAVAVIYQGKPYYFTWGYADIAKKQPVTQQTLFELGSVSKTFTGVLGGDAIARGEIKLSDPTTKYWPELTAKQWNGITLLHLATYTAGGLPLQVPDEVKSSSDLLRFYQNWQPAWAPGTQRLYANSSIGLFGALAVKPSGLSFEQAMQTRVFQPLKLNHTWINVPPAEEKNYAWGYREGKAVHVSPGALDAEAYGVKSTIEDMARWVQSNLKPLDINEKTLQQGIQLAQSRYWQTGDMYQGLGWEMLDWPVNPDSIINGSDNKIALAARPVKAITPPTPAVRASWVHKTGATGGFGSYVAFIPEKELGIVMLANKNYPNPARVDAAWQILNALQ
Sequence of β-galactosidase (P00722 2-1024 limits assumed): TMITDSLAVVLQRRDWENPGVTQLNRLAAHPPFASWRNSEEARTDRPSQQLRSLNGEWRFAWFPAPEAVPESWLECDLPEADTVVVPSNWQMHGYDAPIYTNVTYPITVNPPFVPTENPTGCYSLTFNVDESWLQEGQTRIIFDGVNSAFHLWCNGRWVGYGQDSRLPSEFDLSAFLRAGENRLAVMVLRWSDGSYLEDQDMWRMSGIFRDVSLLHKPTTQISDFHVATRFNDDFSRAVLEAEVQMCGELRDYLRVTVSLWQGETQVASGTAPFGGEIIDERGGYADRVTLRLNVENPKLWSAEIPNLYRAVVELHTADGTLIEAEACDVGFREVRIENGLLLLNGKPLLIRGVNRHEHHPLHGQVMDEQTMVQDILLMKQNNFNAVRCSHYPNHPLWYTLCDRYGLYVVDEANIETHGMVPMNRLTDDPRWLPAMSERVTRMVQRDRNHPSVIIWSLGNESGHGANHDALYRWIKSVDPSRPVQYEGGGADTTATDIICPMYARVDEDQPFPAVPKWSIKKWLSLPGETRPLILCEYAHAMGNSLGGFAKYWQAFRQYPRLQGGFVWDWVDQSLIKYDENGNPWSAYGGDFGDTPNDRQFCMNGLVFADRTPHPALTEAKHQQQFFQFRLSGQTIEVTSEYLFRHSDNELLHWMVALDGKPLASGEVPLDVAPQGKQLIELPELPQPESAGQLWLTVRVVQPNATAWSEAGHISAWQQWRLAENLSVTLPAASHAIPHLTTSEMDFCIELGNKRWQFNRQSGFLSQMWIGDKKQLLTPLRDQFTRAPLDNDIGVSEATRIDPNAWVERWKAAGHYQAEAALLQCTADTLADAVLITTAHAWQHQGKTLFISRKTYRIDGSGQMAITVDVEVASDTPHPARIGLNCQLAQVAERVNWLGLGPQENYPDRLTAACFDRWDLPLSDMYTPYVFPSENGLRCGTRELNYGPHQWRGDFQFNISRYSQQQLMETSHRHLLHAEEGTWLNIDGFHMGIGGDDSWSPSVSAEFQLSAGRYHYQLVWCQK
Sequence of triosephosphate isomerase (Q07412 whole entry): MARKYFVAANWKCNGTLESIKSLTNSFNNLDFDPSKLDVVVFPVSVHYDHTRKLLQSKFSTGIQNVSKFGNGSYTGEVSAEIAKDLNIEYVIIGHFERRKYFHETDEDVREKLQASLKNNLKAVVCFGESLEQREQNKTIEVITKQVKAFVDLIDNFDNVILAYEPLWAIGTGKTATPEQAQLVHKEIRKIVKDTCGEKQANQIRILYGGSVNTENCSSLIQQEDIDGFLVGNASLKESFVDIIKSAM
Sequence of insulin receptor (P06213 28-1382, species assumed): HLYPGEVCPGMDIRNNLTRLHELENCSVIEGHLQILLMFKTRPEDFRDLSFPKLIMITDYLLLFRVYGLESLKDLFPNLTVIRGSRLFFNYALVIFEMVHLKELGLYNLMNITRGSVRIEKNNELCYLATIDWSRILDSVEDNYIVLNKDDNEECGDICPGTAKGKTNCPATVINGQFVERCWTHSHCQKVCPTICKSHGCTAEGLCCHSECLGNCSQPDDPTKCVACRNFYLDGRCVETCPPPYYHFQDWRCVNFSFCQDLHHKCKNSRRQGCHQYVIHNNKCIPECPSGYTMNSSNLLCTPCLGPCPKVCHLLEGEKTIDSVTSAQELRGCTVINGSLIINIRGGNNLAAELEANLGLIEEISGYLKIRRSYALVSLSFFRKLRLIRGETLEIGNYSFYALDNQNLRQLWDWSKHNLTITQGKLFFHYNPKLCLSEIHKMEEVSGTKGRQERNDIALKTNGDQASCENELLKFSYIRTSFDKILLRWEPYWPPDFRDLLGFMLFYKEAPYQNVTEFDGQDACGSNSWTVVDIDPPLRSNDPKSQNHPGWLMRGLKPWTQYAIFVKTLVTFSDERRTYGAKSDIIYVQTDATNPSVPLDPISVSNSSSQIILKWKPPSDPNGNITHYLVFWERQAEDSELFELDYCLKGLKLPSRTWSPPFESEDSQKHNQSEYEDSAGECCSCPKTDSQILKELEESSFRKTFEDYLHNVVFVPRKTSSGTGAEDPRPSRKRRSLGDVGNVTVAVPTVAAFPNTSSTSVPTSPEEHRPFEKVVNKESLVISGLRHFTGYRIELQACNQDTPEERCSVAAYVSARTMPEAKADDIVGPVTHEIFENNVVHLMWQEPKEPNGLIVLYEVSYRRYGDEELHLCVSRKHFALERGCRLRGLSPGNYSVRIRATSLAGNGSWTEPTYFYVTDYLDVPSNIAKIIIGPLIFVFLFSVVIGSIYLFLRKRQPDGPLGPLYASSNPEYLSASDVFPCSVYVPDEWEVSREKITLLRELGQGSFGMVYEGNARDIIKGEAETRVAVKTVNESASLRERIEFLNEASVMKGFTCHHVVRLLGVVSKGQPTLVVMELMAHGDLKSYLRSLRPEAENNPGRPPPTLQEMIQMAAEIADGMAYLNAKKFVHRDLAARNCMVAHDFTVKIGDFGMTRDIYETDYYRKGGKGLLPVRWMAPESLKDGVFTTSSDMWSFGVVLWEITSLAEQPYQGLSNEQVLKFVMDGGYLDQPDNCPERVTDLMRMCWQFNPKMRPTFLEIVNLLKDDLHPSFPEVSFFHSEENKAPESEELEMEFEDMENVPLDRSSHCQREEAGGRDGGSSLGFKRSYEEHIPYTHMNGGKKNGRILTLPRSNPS

O=S(=O)(O)c1cc(O)c(/N=N/c2ccc3ccccc3c2O)c2ccccc12
pIC50 [1]: 4.30

O=C1C2C(C(=O)N1Nc1ccc([N+](=O)[O-])cc1[N+](=O)[O-])[C@@]1(Cl)C(Cl)=C(Cl)[C@]2(Cl)C1(Cl)Cl (stereo partly drawn)
Diameter, 5 mM KPi ([2]; DLS in 5 mM KPi): 143.5 ± 7.9 nm | DLS Diameter [2, 18]: 418.6 ± 38.8 nm | DLS Intensity [2, 18]: 24.9 ± 3.1 kcps

O=C(N/N=C/c1ccccc1O)C(=O)N/N=C/c1ccccc1O
Diameter, 5 mM KPi ([2]; DLS in 5 mM KPi): 389.3 ± 55.4 nm | Diameter, 500 mM KPi ([2]; DLS in 500 mM KPi): 426.6 ± 23.8 nm | DLS Diameter [2, 18]: 394.6 ± 12.5 nm | DLS Intensity [2, 18]: 26.4 ± 5.1 kcps

O=C(O)c1cc(-c2ccc(Cl)cc2)nc(-c2ccc(Nc3ccc(Cl)cc3)cc2)c1
pIC50 [3, 19]: 5.70 | ↑ IC50 vs. 10x β-lactamase ([4]; Table 6): 4-fold | ↓ IC50 with Incubation [4, 20]: 12-fold | pIC50 [5]: 5.70

CC(C)(C)c1ccc(-c2cc(C(=O)O)cc(-c3ccc(Cl)c(O)c3)n2)cc1
pIC50 [3, 19]: 4.89 | ↑ IC50 vs. 10x β-lactamase ([4]; Table 6): 12-fold | ↓ IC50 with Incubation [4, 20]: >50-fold | pIC50 [5]: 5.40

CCCC[n+]1ccc(-c2cc(C(=O)O)cc(-c3ccc(Cl)cc3)n2)cc1
↑ IC50 vs. 10x β-lactamase ([4]; Table 6): 20-fold | ↓ IC50 with Incubation [4, 20]: 24-fold | pIC50 [5]: 5.10

O=C1Nc2cccc(O)c2C1Cc1ccc2c(c1)CCCC2 (stereo not drawn)
pIC50 [3, 19]: 4.40 | ↑ IC50 vs. 10x β-lactamase ([4]; Table 6): 6-fold | ↓ IC50 with Incubation [4, 20]: 3-fold | pIC50 [5]: 4.82

O=S(=O)(O)Cc1cc2cc(S(=O)(=O)O)c(/N=N/c3ccc(Br)cc3S(=O)(=O)O)c(O)c2c(O)c1/N=N/c1ccc(Br)cc1S(=O)(=O)O
↑ IC50 vs. 10x β-lactamase ([4]; Table 6): >50-fold | ↓ IC50 with Incubation [4, 20]: 2-fold | pIC50 [5]: 4.10

CC(C)c1ccc(/C=C2/C(=O)Nc3ccccc32)cc1 [3-(4-isopropylbenzylidene)indolin-2-one]
Diameter, 5 mM KPi ([2]; DLS in 5 mM KPi): 247.1 ± 12.8 nm | Diameter, 500 mM KPi ([2]; DLS in 500 mM KPi): 494.3 ± 48.1 nm | DLS Diameter [2, 18]: 379.0 ± 14.1 nm | DLS Intensity [2, 18]: 43.8 ± 5.7 kcps

O=S(=O)(O)c1cccc2cccc(Nc3ccccc3)c12 [ANS, 8-anili-no-1-naphthalene-sulfonic acid]
inhibition of the model enzymes [6]: does not inhibit the model enzymes | particles observed by TEM [7]: Particles were not observed | DLS Diameter [2]: No particles | DLS Intensity [2]: 0.5 ± 0.1 kcps | Diameter, 5 mM KPi [2]: No particles | Diameter, 50 mM KPi [2]: No particles | Diameter, 500 mM KPi [2]: No particles

OB(O)c1cc2ccccc2s1 [Benzo[b]thiophene-2-boronic acid]
↓ IC50 with Incubation [4, 21]: No change | ↑ IC50 vs. 10x Enzyme ([4]; Table 2): No change | particle formation in solution by DLS (autocorrelation function) ([2]; 50 mM KPi): not observed to form particles | Diameter, 5 mM KPi ([2]; DLS in 5 mM KPi): No particles | Diameter, 50 mM KPi ([2]; DLS in 50 mM KPi): No particles | Diameter, 500 mM KPi ([2]; DLS in 500 mM KPi): No particles | DLS Diameter [2, 18]: No particles | DLS Intensity [2, 18]: 0.9 ± 0.2 kcps

Nc1c(/N=N/c2ccc(-c3ccc(/N=N/c4cc(S(=O)(=O)O)c5ccccc5c4N)cc3)cc2)cc(S(=O)(=O)O)c2ccccc12 [Congo Red]
inhibition of the model enzymes [6]: inhibit the model enzymes | pIC50 [8]: 6.00 | pIC50 [9]: 4.52 | DLS Diameter [2]: 202.6 ± 22.5 nm | DLS Intensity [2]: 131.1 ± 64.3 kcps | particle formation in solution by DLS (autocorrelation function) [2]: did form particles detectable by DLS

O=C1OC2(c3cc(I)c(O)c(I)c3Oc3c2cc(I)c(O)c3I)c2c(Cl)c(Cl)c(Cl)c(Cl)c21 [Rose Bengal lactone]
pKd [10]: 4.70

O=C1O/C(=C\Nc2ccc(Oc3ccccc3)cc2)c2ccccc21 [drawing 3]
pIC50 [5]: 5.30

Oc1ccc(/N=N/c2ccc(Br)cc2)cc1 [drawing 33]
↑ IC50 in the presence of BSA, against β-galactosidase [11]: 8 fold

O=C1O/C(=C\Nc2ccc(Oc3ccccc3)cc2)c2ccccc21 [drawing 34]
↑ IC50 in the presence of BSA, against β-galactosidase [11]: 9 fold

Oc1ccc(/N=N/c2ccc(Br)cc2)cc1 [drawing 40]
Diameter, 5 mM KPi ([2]; DLS in 5 mM KPi): 140.2 ± 12.1 nm | Diameter, 500 mM KPi ([2]; DLS in 500 mM KPi): 267.4 ± 24.5 nm | DLS Diameter [2, 18]: 176.2 ± 7.9 nm | DLS Intensity [2, 18]: 12.6 ± 3.9 kcps

O=C1O/C(=C\Nc2ccc(Oc3ccccc3)cc2)c2ccccc21 [drawing 41]
DLS Diameter [2, 18]: 94.7 ± 4.2 nm | DLS Intensity [2, 18]: 16.2 ± 1.1 kcps

O=c1c(O)c(-c2ccc(O)c(O)c2)oc2cc(O)cc(O)c12 [quercetin]
pIC50 [12]: 4.96 | pIC50 [13]: 5.42 | pIC50 ([11]; Table 1, 37° C.): 3.66

O=C1C(I)=CC(=C(c2cc(I)c(O)c(I)c2)c2ccccc2C(=O)O)C=C1I [tetraiodophenolphthalein]
pIC50 [14]: 4.52 | pIC50 [15]: 5.52 | particle formation in solution by DLS (autocorrelation function) ([2]; 50 mM KPi): presence of particles | Diameter, 5 mM KPi ([2]; DLS in 5 mM KPi): 86.2 ± 10.5 nm | Diameter, 500 mM KPi ([2]; DLS in 500 mM KPi): 320.4 ± 38.8 nm | DLS Diameter [2, 18]: 153.4 ± 26.0 nm | DLS Intensity [2, 18]: 42.2 ± 3.9 kcps | DLS mean diameter in the TEM conditions ([2]; same conditions as TEM): 83.2 ± 6.5 nm

tris (dicarboxymethylene) fullerene-C3
pIC50 [16]: 4.77 | pIC50 [17]: 4.62 | pIC50 ([3]; Table 1, read-out: IC50 Chymotrypsin): 4.22 | ↓ IC50 with Incubation [4, 21]: 2-fold | ↑ IC50 vs. 10x Enzyme ([4]; Table 2): >50-fold | pIC50 ([4]; read-out: IC50 β-lactamase, Table 1, 50 mM KPi pH 7.0, 5 min incubation, 1 nM enzyme): 5.15
